Reference: BindingDB's records for doi:10.1021/jm050280z (Uppsala University, 2005)
Starred links: 1 amine or outer side, 2 acyl side, 3 side chain; linkers in the order of their positions; H or OH if unused. Non-standard residues stand in square brackets, D forms with d. Residues, ends and D or L forms follow the SMILES beside them. X2 = O=C(c1cc(CN[*:1])cc(Cc2ccc(O)cc2)c1)[*:2]; X1 = O=C(c1cc(Cc2ccc(O)cc2)cc(N[*:1])c1)[*:2]

Molecular target: Type-2 angiotensin II receptor (Sus scrofa)
Experiment: Binding affinity for angiotensin II receptor, type 2 in pig uterus myometrium using [125I]-Ang II as radioligand, in pH 7.4 Tris-HCl buffer for 1.5 hr at 25 degree C

Ki [nM] | Structure (SMILES)
10.1 | N=C(N)NCCC[C@H](NC(=O)[C@@H](N)CC(=O)O)C(=O)NCc1cc(Cc2ccc(O)cc2)cc(C(=O)N[C@@H](Cc2cnc[nH]2)C(=O)N2CCC[C@H]2C(=O)N[C@@H](Cc2ccccc2)C(=O)O)c1 [(S)-3-Amino-N-{(S)-1-[3-[(S)-2-[2-((S)-(S)-1-carboxy-2-phenyl-ethylcarbamoyl)-pyrrolidin-1-yl]-1-(3H-imidazol-4-ylmethyl)-2-oxo-ethylcarbamoyl]-5-(4-hydroxy-benzyl)-benzylcarbamoyl]-4-guanidino-butyl}-succinamic acid] (H-DR[X2]HPF-OH)
41.3 | N=C(N)NCCC[C@H](NC(=O)[C@@H](N)CC(=O)O)C(=O)Nc1cc(Cc2ccc(O)cc2)cc(C(=O)N[C@@H](Cc2cnc[nH]2)C(=O)N2CCC[C@H]2C(=O)N[C@@H](Cc2ccccc2)C(=O)O)c1 [(S)-3-Amino-N-{(S)-1-[3-[(S)-2-[2-((S)-(S)-1-carboxy-2-phenyl-ethylcarbamoyl)-pyrrolidin-1-yl]-1-(3H-imidazol-4-ylmethyl)-2-oxo-ethylcarbamoyl]-5-(4-hydroxy-benzyl)-phenylcarbamoyl]-4-guanidino-butyl}-succinamic acid] (H-DR[X1]HPF-OH)
1.85 | CC(C)[C@H](NC(=O)[C@H](CCCNC(=N)N)NC(=O)[C@@H](N)CC(=O)O)C(=O)NCc1cc(Cc2ccc(O)cc2)cc(C(=O)N[C@@H](Cc2cnc[nH]2)C(=O)N2CCC[C@H]2C(=O)N[C@@H](Cc2ccccc2)C(=O)O)c1 [(S)-3-Amino-N-((S)-1-{1-[(S)-3-[2-[2-((S)-(S)-1-carboxy-2-phenyl-ethylcarbamoyl)-pyrrolidin-1-yl]-1-(3H-imidazol-4-ylmethyl)-2-oxo-ethylcarbamoyl]-5-(4-hydroxy-benzyl)-benzylcarbamoyl]-2-methyl-propylcarbamoyl}-4-guanidino-butyl)-succinamic acid] (H-DRV[X2]HPF-OH)
9.8 | CC(C)[C@H](NC(=O)[C@H](CCCNC(=N)N)NC(=O)[C@@H](N)CC(=O)O)C(=O)Nc1cc(Cc2ccc(O)cc2)cc(C(=O)N[C@@H](Cc2cnc[nH]2)C(=O)N2CCC[C@H]2C(=O)N[C@@H](Cc2ccccc2)C(=O)O)c1 [(S)-3-Amino-N-((S)-1-{(S)-1-[(S)-3-[2-[2-((S)-(S)-1-carboxy-2-phenyl-ethylcarbamoyl)-pyrrolidin-1-yl]-1-(3H-imidazol-4-ylmethyl)-2-oxo-ethylcarbamoyl]-5-(4-hydroxy-benzyl)-phenylcarbamoyl]-2-methyl-propylcarbamoyl}-4-guanidino-butyl)-succinamic acid] (H-DRV[X1]HPF-OH)
